Test results: patent US10874107B2, “β-lactamase targeted photosensitizer for pesticide and pest detection” (The General Hospital Corporation, priority 2012, dated 2020)

Columns and labels:
[1] = target: β-lactamase from Enterobacter cloacae (Enterobacter cloacae, UniProt P05364); assay: Enzyme-mediated cleavage of the prodrug (fluorescence emission); format: biochemical
From the text: FIGS. 6A and B show plots of (a) fluorescence emission vs. wavelength and (b) fluorescence emission vs. time for the Cephalosporanic acid-photosensitizer prodrug, depicting the enzyme-mediated cleavage of the prodrug.
The prodrug obtained was further studied for release of photosensitizer in presence of β-lactamase from Enterobacter cloacae. For the fluorescence emission study of the prodrug, the solvent employed was water, and the excitation wavelength 635 nm in the presence of beta-lactamase enzyme (from Enterobacter cloacae). Time-dependent fluorescence emission was also measured for photosensitizer release from the prodrug in the presence of enzyme. […] Thus, the prodrug was ynthesized and characterized.

[2] = UV-visible and fluorescence emission spectra of prodrug vs. free photosensitizer (TBO); format: physicochemical

Chain of β-lactamase from Enterobacter cloacae (P05364 21-381): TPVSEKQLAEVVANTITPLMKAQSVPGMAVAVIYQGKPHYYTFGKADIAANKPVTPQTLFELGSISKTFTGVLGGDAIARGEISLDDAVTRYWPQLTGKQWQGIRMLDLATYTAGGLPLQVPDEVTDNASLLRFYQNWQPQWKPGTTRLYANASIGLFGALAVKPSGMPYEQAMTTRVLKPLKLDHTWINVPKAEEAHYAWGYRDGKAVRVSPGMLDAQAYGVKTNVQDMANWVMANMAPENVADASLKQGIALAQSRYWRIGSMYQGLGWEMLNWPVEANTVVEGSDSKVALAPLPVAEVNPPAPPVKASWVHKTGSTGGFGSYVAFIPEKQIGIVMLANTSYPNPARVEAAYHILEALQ

Substance: Cephalosporanic Acid-Toluidine blueO Prodrug
- lactamase-specific activity [1]: demonstrated lactamase-specific activity
- increase in excited stated properties (fluorescence emission) on incubation with enzyme ([1]; water, excitation 635 nm, within minutes of incubation with β-lactamase): ~5 fold
- quenching of the photosensitizer in the conjugated form [2]: quantitative quenching
- reduction in fluorescence emission maxima (prodrug vs. TBO) ([2]; 635 nm excitation, ethanol): ~8 fold
- shift in the absorption spectra (UV-visible) ([2]; ethanol, 2.0×10^−5 M, vs. TBO): blue shift
